pIC50: −log10 of the molar value.
Target: human TREK-1 (Homo sapiens (Human), UniProt O95069)
Assay: TREK-1 Thallium (Tl+) flux assay
Type: cell-based
Details: CHO-K1 cells stably expressing human TREK-1

Chain of human TREK-1 (O95069 whole entry): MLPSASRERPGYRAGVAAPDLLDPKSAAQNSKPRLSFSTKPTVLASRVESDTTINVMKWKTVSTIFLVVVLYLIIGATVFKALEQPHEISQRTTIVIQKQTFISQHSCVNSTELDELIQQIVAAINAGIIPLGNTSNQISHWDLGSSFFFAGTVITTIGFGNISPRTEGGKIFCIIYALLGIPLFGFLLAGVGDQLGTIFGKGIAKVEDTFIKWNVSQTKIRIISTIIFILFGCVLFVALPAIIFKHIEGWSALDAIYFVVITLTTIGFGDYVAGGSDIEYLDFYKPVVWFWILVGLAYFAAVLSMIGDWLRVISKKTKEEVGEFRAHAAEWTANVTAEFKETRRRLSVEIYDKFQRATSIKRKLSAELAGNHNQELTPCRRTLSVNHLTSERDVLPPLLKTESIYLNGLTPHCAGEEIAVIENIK

pIC50	SMILES
6.77	Cc1cc(C#Cc2ccccc2)cnc1NC(=O)c1cc(-c2cnn(CCN3CCOCC3)c2)ccc1Cl [Compound 62, 2-chloro-N-[3-methyl-5-(2-phenylethynyl)-2-pyridyl]-5-[1-(2-morpholinoethyl)pyrazol-4-yl]benzamide]
6.70	Cc1noc(-c2ccc(Cl)c(C(=O)Nc3ncc(C#Cc4ccccc4)cc3C)c2)n1 [Compound 63, 2-chloro-5-(3-methyl-1,2,4-oxadiazol-5-yl)-N-[3-methyl-5-(2-phenylethynyl)-2-pyridyl]benzamide]
6.70	CCn1ccc(-c2ccc(Cl)c(C(=O)Nc3ncc(C#Cc4ccccc4)cc3C)c2)n1 [Compound 64, 2-chloro-5-(1-ethylpyrazol-3-yl)-N-[3-methyl-5-(2-phenylethynyl)-2-pyridyl]benzamide]
6.70	Cc1cc(C#Cc2ccccc2)cnc1NC(=O)c1cc(-c2cnn(C3CCOCC3)c2)ccc1Cl [Compound 65, 2-chloro-N-[3-methyl-5-(2-phenylethynyl)-2-pyridyl]-5-(1-tetrahydropyran-4-ylpyrazol-4-yl)benzamide]
6.66	Cc1cc(C#Cc2ccccc2)cnc1NC(=O)c1cc(-c2cnn(C3CCOC3)c2)ccc1Cl (stereo not shown) [Compound 66, 2-chloro-N-(3-methyl-5-(phenylethynyl)pyridin-2-yl)-5-(1-(tetrahydrofuran-3-yl)-1H-pyrazol-4-yl)benzamide]
6.68	Cc1nc(C)c(-c2ccc(Cl)c(C(=O)Nc3ncc(C#Cc4ccccc4)cc3F)c2)s1 [Compound 67, 2-chloro-5-(2,4-dimethylthiazol-5-yl)-N-[3-fluoro-5-(2-phenylethynyl)-2-pyridyl]benzamide]
6.66	Cc1nn(C)cc1-c1ccc(Cl)c(C(=O)Nc2ncc(C#Cc3ccccc3)cc2F)c1 [Compound 68, 2-chloro-5-(1,3-dimethylpyrazol-4-yl)-N-[3-fluoro-5-(2-phenylethynyl)-2-pyridyl]benzamide]
6.64	Cc1cc(C#Cc2ccccc2)cnc1NC(=O)c1cc(C(=O)N2CCCC2C)ccc1Cl (stereo not shown) [Compound 69, 2-chloro-N-[3-methyl-5-(2-phenylethynyl)-2-pyridyl]-5-(2-methylpyrrolidine-1-carbonyl)benzamide]
6.59	Cc1nc(C)c(-c2ccc(Cl)c(C(=O)Nc3ncc(C#Cc4ccccc4)cc3C)c2)s1 [Compound 70, 2-chloro-5-(2,4-dimethylthiazol-5-yl)-N-[3-methyl-5-(2-phenylethynyl)-2-pyridyl]benzamide]
6.52	Cc1cc(C#Cc2ccccc2)cnc1NC(=O)c1cc(C(=O)N2CC(O)C2)ccc1Cl [Compound 71, 2-chloro-5-(3-hydroxyazetidine-1-carbonyl)-N-[3-methyl-5-(2-phenylethynyl)-2-pyridyl]benzamide]
6.44	Cc1cc(C)n(C(=O)c2ccc(Cl)c(C(=O)Nc3ncc(C#Cc4ccccc4)cc3C)c2)n1 [Compound 72, 2-chloro-5-(3,5-dimethylpyrazole-1-carbonyl)-N-[3-methyl-5-(2-phenylethynyl)-2-pyridyl]benzamide]
6.41	Cc1cc(C#Cc2ccccc2)cnc1NC(=O)c1cc(C(=O)N2CC(F)C2)ccc1Cl [Compound 73, 2-chloro-5-(3-fluoroazetidine-1-carbonyl)-N-[3-methyl-5-(2-phenylethynyl)-2-pyridyl]benzamide]
6.39	Cc1cc(C#Cc2ccccc2)cnc1NC(=O)c1cc(-c2cn(C)nc2C)ccc1Cl [Compound 74, 2-chloro-5-(1,3-dimethylpyrazol-4-yl)-N-[3-methyl-5-(2-phenylethynyl)-2-pyridyl]benzamide]
6.35	Cc1ncc(-c2ccc(Cl)c(C(=O)Nc3ncc(C#Cc4ccccc4)cc3C)c2)s1 [Compound 75, 2-chloro-N-[3-methyl-5-(2-phenylethynyl)-2-pyridyl]-5-(2-methylthiazol-5-yl)benzamide]
6.35	Cc1cc(C#Cc2ccccc2)cnc1NC(=O)c1cc(-c2c(C)cnn2C)ccc1Cl [Compound 76, 2-chloro-5-(2,4-dimethylpyrazol-3-yl)-N-[3-methyl-5-(2-phenylethynyl)-2-pyridyl]benzamide]
6.33	Cc1cc(C#Cc2ccccc2)cnc1NC(=O)c1cc(-c2nnco2)ccc1Cl [Compound 77, 2-chloro-N-[3-methyl-5-(2-phenylethynyl)-2-pyridyl]-5-(1,3,4-oxadiazol-2-yl)benzamide]
6.33	Cc1cc(C#Cc2ccccc2)cnc1NC(=O)c1cc(-c2cnn(C)c2)ccc1Cl [Compound 78, 2-chloro-N-[3-methyl-5-(2-phenylethynyl)-2-pyridyl]-5-(1-methylpyrazol-4-yl)benzamide]

pIC50	SMILES
6.06	Cc1cc(C#Cc2ccccc2)cnc1NC(=O)c1cc(C(=O)N2CC(O)(C(F)(F)F)C2)ccc1Cl [Compound 79, 2-chloro-5-[3-hydroxy-3-(trifluoromethyl)azetidine-1-carbonyl]-N-[3-methyl-5-(2-phenylethynyl)-2-pyridyl]benzamide]
7.22	O=C(Nc1ncc(C#Cc2ccccc2)cc1F)c1cc(OC[C@H]2COCCO2)ccc1Cl [Compound 80, 2-chloro-5-[[(2R)-1,4-dioxan-2-yl]methoxy]-N-[3-fluoro-5-(2-phenylethynyl)-2-pyridyl]benzamide]
6.44	Cc1cc(C#Cc2ccccc2)cnc1N1Cc2ccc(OCC3COCCO3)cc2C1=O (stereo not shown) [Compound 81, 6-(1,4-dioxan-2-ylmethoxy)-2-[3-methyl-5-(2-phenylethynyl)-2-pyridyl]isoindolin-1-one]
6.41	Cc1cc(C#Cc2ccccc2)cnc1N1Cc2ccc(OCC3CCOCC3)cc2C1=O [Compound 82, 2-(3-methyl-5-(phenylethynyl)pyridin-2-yl)-6-((tetrahydro-2H-pyran-4-yl)methoxy)isoindolin-1-one]
6.38	Cc1cc(C#Cc2ccccc2)cnc1NC(=O)c1cc(OCCN2CCOCC2)ccc1Cl [Compound 84, 2-chloro-N-[3-methyl-5-(2-phenylethynyl)-2-pyridyl]-5-(2-morpholinoethoxy)benzamide]
6.25	Cc1cc(OCc2ccccc2)cnc1NC(=O)c1cc(NC(=O)OC(C)(C)C)ccc1Cl [Compound 87, tert-butyl N-[3-[(5-benzyloxy-3-methyl-2-pyridyl)carbamoyl]-4-chloro-phenyl]carbamate]
6.44	Cc1cc(OCc2ccccc2)cc(C)c1NC(=O)c1cc(NC(=O)OC(C)(C)C)ccc1Cl [Compound 88, tert-butyl (3-((4-(benzyloxy)-2,6-dimethylphenyl)carbamoyl)-4-chlorophenyl)carbamate]
5.12	Cc1cc(OCc2ccccc2)ccc1NC(=O)c1ccc(N)cc1Cl [Compound 89, 4-amino-N-(4-(benzyloxy)-2-methylphenyl)-2-chlorobenzamide]
5.99	CC(=O)Nc1ccc(Cl)c(C(=O)Nc2ccc(OCc3ccccc3)cc2C)c1 [Compound 91]
6.89	CC(C)(C)OC(=O)Nc1ccc(Cl)c(C(=O)Nc2ncc(-c3cnn(-c4ccc(F)cc4)c3)cc2F)c1 [Compound 92, tert-butyl (4-chloro-3-((3-fluoro-5-(1-(4-fluorophenyl)-1H-pyrazol-4 yl)pyridin-2-yl)carbamoyl)phenyl)carbamate]
6.72	Cc1cc(-c2cnn(-c3ccccc3)c2)cnc1NC(=O)c1cc(NC(=O)OC(C)(C)C)ccc1Cl [Compound 93, tert-butyl N-[4-chloro-3-[[3-methyl-5-(1-phenylpyrazol-4-yl)-2-pyridyl]carbamoyl]phenyl]carbamate]
6.70	Cc1cc(-c2cnn(-c3ccc(F)cc3)c2)cnc1NC(=O)c1cc(NC(=O)OC(C)(C)C)ccc1Cl [Compound 94, tert-butyl N-[4-chloro-3-[[5-[1-(4-fluorophenyl)pyrazol-4-yl]-3-methyl-2-pyridyl]carbamoyl]phenyl]carbamate]
6.64	Cc1cc(-c2noc(-c3ccc(F)cc3)n2)cnc1NC(=O)c1cc(NC(=O)OC(C)(C)C)ccc1Cl [Compound 95, tert-butyl N-[4-chloro-3-[[5-[5-(4-fluorophenyl)-1,2,4-oxadiazol-3-yl]-3-methyl-2-pyridyl]carbamoyl]phenyl]carbamate]
6.64	CC(C)(C)OC(=O)Nc1ccc(Cl)c(C(=O)Nc2ncc(-c3cc(-c4ccccc4)no3)cc2F)c1 [Compound 96, tert-butyl N-[4-chloro-3-[[3-fluoro-5-(3-phenylisoxazol-5-yl)-2-pyridyl]carbamoyl]phenyl]carbamate]
6.54	CC(C)(C)OC(=O)Nc1ccc(Cl)c(C(=O)Nc2ncc(-c3cnn(-c4ccccc4)c3)cc2F)c1 [Compound 97, tert-butyl N-[4-chloro-3-[[3-fluoro-5-(1-phenylpyrazol-4-yl)-2-pyridyl]carbamoyl]phenyl]carbamate]
6.25	O=C(Nc1ncc(-c2ccn(-c3ccc(F)cc3)n2)cc1F)c1cc(NC(=O)C2COCCO2)ccc1Cl (stereo not shown) [Compound 98, N-[4-chloro-3-[[3-fluoro-5-[1-(4-fluorophenyl)pyrazol-3-yl]-2-pyridyl]carbamoyl]phenyl]1,4-dioxane-2-carboxamide]
5.74	Cc1cc(-c2ccc(-c3ccccc3)s2)cnc1NC(=O)c1cc(NC(=O)OC(C)(C)C)ccc1Cl [Compound 99, tert-butyl N-[4-chloro-3-[[3-methyl-5-(5-phenyl-2-thienyl)-2-pyridyl]carbamoyl]phenyl]carbamate]

— patent publication US20240190824A1, “INHIBITORS OF TREK (TWIK RELATED K+ CHANNELS) CHANNEL FUNCTION” (ONO PHARMACEUTICAL CO., LTD., priority 2019, published 2024)
